What was measured:
Assay type in all cases: in vivo
normotensive dogs = assay: Intraocular pressure (IOP) in normotensive dogs
Experimental: Compounds from above are tested in vivo to measure its ability to reduce intraocular pressure. Compound 14a is tested in normotensive dogs.

[1] = system: laser-induced hypertensive monkeys; assay: Intraocular pressure (IOP) in laser-induced hypertensive monkeys
[2] = system: lashes and adjacent hairs of patients; assay: Lash and hair appearance in glaucoma patients treated in one eye only; conditions: glaucoma patient treated in one eye
Source text: In the course of treating patients having glaucoma, treatment may only be appropriate in one eye. […] The lash appearance on the lids of the treated eyes would have appeared quite attractive if it represented a bilateral phenomenon. As a result of its asymmetric nature, the long lashes on one side could be construed as disturbing from a cosmetic standpoint. A systemic examination was preformed as a result of the asymmetric phenomenon. It soon became apparent that this altered appearance was not an isolated finding. […] Definite differences could be identified to varying degrees in the lashes and adjacent hairs of all patients who were taking the drug on a unilateral basis for longer than 6 months.
The changes in the lashes were apparent on gross inspection in several patients once attention was focused on the issue. In those with light colored hair and lashes, the differences were only seen easily with the aid of the high magnification and lighting capabilities of the slit lamp biomicroscope. In the course of glaucoma follow-up examination, attention is generally immediately focused on the eye itself. As a result of the high power magnification needed only one eye is seen at a time and the eye is seen at a high enough power that the lashes are not in focus. […]

For `CCCCCC(O)c1ccc(C2C(O)CC(Cl)C2CC=CCCCC(=O)OCCO)cc1` (centres unmarked) [Compound 51a], which “intraocular pressure (IOP) change from baseline” value (normotensive dogs) is on record?
The value was “decreases from baseline”.

What about the “intraocular pressure (IOP) change from baseline” value [1] of the same molecule?
The value was “decreases from baseline”.

What does the source list for `CCCCCC(O)c1ccc(C2C(O)CC(Cl)C2CC=CCCCC(=O)OCCN2CCOCC2)cc1` (centres unmarked) [Compound 51b]?
intraocular pressure (IOP) change from baseline (normotensive dogs): decreases from baseline; intraocular pressure (IOP) change from baseline [1]: decreases from baseline

How did the “intraocular pressure (IOP) change from baseline” value (normotensive dogs) turn out when `CCCCCC(O)c1ccc(C2C(O)CC(F)C2CC=CCCCC(=O)OCCN2CCOCC2)cc1` (centres unmarked) [Compound 40b] was run?
The value was “decreases from baseline”.

What about the “intraocular pressure (IOP) change from baseline” value [1] of the same molecule?
Its value is “decreases from baseline”.

For `CCCCCC(O)c1ccc(C2C(O)CC(Cl)C2CC=CCCCC(=O)OCCO)cc1` (centres unmarked) [Compound 68a], which “intraocular pressure (IOP) change from baseline” value (normotensive dogs) is on record?
The value was “decreases from baseline”.

What about the “intraocular pressure (IOP) change from baseline” value [1] of the same molecule?
Its value is “decreases from baseline”.

Which “lash appearance, treated eye versus non-treated eye” value [2] does the source give for `CCNC(=O)CCC/C=C\C[C@@H]1[C@@H](/C=C/[C@@H](O)CCc2ccccc2)[C@H](O)C[C@@H]1O` [bimatoprost] here?
Its value is “longer, thicker, and fuller in the treated eye than in the non-treated eye”.

What does the source list for `CCCCCC(O)c1ccc(C2C(O)CC(Cl)C2Cc2cccc(CCC(=O)OCCN3CCOCC3)c2)cc1` (centres unmarked) [Compound 25b]?
intraocular pressure (IOP) change from baseline (normotensive dogs): decreases from baseline; intraocular pressure (IOP) change from baseline [1]: decreases from baseline

Which “intraocular pressure (IOP) change from baseline” value (normotensive dogs) does the source give for `CCCCCC(O)c1ccc(C2C(O)CC(Cl)C2CCCc2ncc(C(=O)OCCN3CCOCC3)s2)cc1` (centres unmarked) [Compound 34b] here?
Its value is “decreases from baseline”.

What about the “intraocular pressure (IOP) change from baseline” value [1] of the same molecule?
The value was “decreases from baseline”.

What does the source list for `CCCCCC(O)c1ccc(C2C(O)CC(F)C2CC=CCCCC(=O)OCCO)cc1` (centres unmarked) [Compound 40a]?
intraocular pressure (IOP) change from baseline (normotensive dogs): decreases from baseline; intraocular pressure (IOP) change from baseline [1]: decreases from baseline

Which results are given for `CCCCCCc1ccc(C2C(O)CC(Cl)C2CC=CCCCC(=O)OCCN2CCOCC2)cc1` (centres unmarked) [Compound 63b]?
intraocular pressure (IOP) change from baseline (normotensive dogs): decreases from baseline; intraocular pressure (IOP) change from baseline [1]: decreases from baseline

How did the “intraocular pressure (IOP) change from baseline” value (normotensive dogs) turn out when `CCCCCC(O)c1ccc(C2C(O)CC(Cl)C2Cc2cccc(CCC(=O)OCCO)c2)cc1` (centres unmarked) [Compound 25a] was run?
Its value is “decreases from baseline”.

What about the “intraocular pressure (IOP) change from baseline” value [1] of the same molecule?
Its value is “decreases from baseline”.

Which results are given for `CCCCCC(O)c1ccc(C2C(O)CC(Cl)C2CC=CCCCC(=O)OCCO)cc1` (centres unmarked) [Compound 46a]?
intraocular pressure (IOP) change from baseline (normotensive dogs): decreases from baseline; intraocular pressure (IOP) change from baseline [1]: decreases from baseline

With `CCCCCC(O)c1ccc(C2C(O)CC(Cl)C2CC=CCCCC(=O)OCCN2CCOCC2)cc1` (centres unmarked) [Compound 46b] as the molecule, how does the “intraocular pressure (IOP) change from baseline” value (normotensive dogs) read?
Its value is “decreases from baseline”.

What about the “intraocular pressure (IOP) change from baseline” value [1] of the same molecule?
The value was “decreases from baseline”.

Which “intraocular pressure (IOP) change from baseline” value (normotensive dogs) does the source give for `CCCCCC(O)c1ccc(C2C(O)CC(Cl)C2CC=CCCCC(=O)OCCN2CCOCC2)cc1` (centres unmarked) [Compound 68b] here?
The value was “decreases from baseline”.

And the “intraocular pressure (IOP) change from baseline” value [1]?
Its value is “decreases from baseline”.

`CCCCCCc1ccc(C2C(O)CC(Cl)C2CC=CCCCC(=O)OCCO)cc1` (centres unmarked) [Compound 63a] was tested. Which “intraocular pressure (IOP) change from baseline” value (normotensive dogs) did it give?
The value was “decreases from baseline”.

And the “intraocular pressure (IOP) change from baseline” value [1]?
The value was “decreases from baseline”.

With `CCCCCC(O)c1ccc(C2C(O)CC(Cl)C2CCCc2ncc(C(=O)OCCO)s2)cc1` (centres unmarked) [Compound 34a] as the molecule, how does the “intraocular pressure (IOP) change from baseline” value (normotensive dogs) read?
The value was “decreases from baseline”.

What about the “intraocular pressure (IOP) change from baseline” value [1] of the same molecule?
Its value is “decreases from baseline”.

Source: patent publication US7732443B2, “Therapeutic substituted cyclopentanes” (priority 2008, dated 2010)
